# Where a name gives a salt, the structure may show the parent alone.
# Molecular target: T1, hiNOS (Homo sapiens, UniProt P35228)
# T1 construct: expressed in transfected cells; host or cells: HEK293
# Test: DAN assay, hiNOS expressed in transiently transfected HEK293 cells
# Type: cell-based
# Settings: HEK293 cells transiently transfected with hiNOS
# Method in brief: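 Human iNOS, nNOS or eNOS transiently expressed in HEK293 cells, with nNOS and eNOS needing added cofactors for activity. NO production is read as nitrite by fluorometry: 2,3-diaminonaphthalene forms fluorescent […], detecting 10 nM to 10 μM nitrite.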
row,SMILES,EC50
1,"Oc1ccc(CN(CCCNCc2ccc3c(c2)OCO3)c2nc(-n3ccnc3)ns2)cc1 [Example 103, 4-{[{3-[(Benzo[1,3]dioxol-5-ylmethyl)-amino]-propyl}-(3-imidazol-1-yl-[1,2,4]thiadiazol-5-yl)-amino]-methyl}-phenol]",< 1 µM
2,"CSc1ccc(CN(CCCNCc2ccc3c(c2)OCO3)c2nc(-n3ccnc3)ns2)cc1 [Example 104, N′-Benzo[1,3]dioxol-5-ylmethyl-N-(3-imidazol-1-yl-[1,2,4]thiadiazol-5-yl)-N-(4-methylsulfanyl-benzyl)-propane-1,3-diamine]",< 1 µM
3,"Cn1cnc(CN(CCCNCc2ccc3c(c2)OCO3)c2nc(-n3ccnc3)ns2)c1 [Example 106, N′-Benzo[1,3]dioxol-5-ylmethyl-N-(3-imidazol-1-yl-[1,2,4]thiadiazol-5-yl)-N-(1-methyl-1H-imidazol-4-ylmethyl)-propane-1,3-diamine]",< 1 µM
4,"Cc1cc(CNC(=O)C2CCCN2Cc2ccc(C(F)(F)F)cc2)nc(-n2ccnc2)n1 (stereo not drawn) [Example 107, 1-(4-Trifluoromethyl-benzyl)-pyrrolidine-2-carboxylic acid (2-imidazol-1-yl-6-methyl-pyrimidin-4-ylmethyl)-amide]",> 50 µM
5,"Cc1cc(CNC(=O)C2CCCN2Cc2ccc(F)cc2)nc(-n2ccnc2)n1 (stereo not drawn) [Example 111, 1-(4-Fluoro-benzyl)-pyrrolidine-2-carboxylic acid (2-imidazol-1-yl-6-methyl-pyrimidin-4-ylmethyl)-amide]",> 50 µM
6,"Cc1cc(CNC(=O)C2CCCN2Cc2ccc(F)c(F)c2)nc(-n2ccnc2)n1 (stereo not drawn) [Example 112, 1-(3,4-Difluoro-benzyl)-pyrrolidine-2-carboxylic acid (2-imidazol-1-yl-6-methyl-pyrimidin-4-ylmethyl)-amide]",> 50 µM
7,"Cc1cc(CNC(=O)C2CCCN2Cc2ccc(Cl)cc2)nc(-n2ccnc2)n1 (stereo not drawn) [Example 113, 1-(4-Chloro-benzyl)-pyrrolidine-2-carboxylic acid (2-imidazol-1-yl-6-methyl-pyrimidin-4-ylmethyl)-amide]",< 50 µM
8,"Cc1cc(CNC(=O)C2CCCN2Cc2ccc(OC(C)C)cc2)nc(-n2ccnc2)n1 (stereo not drawn) [Example 115, 1-(4-Isopropoxy-benzyl)-pyrrolidine-2-carboxylic acid (2-imidazol-1-yl-6-methyl-pyrimidin-4-ylmethyl)-amide]",> 50 µM
9,"Cc1cc(CNC(=O)C2CCCN2Cc2ccc3c(c2)OCO3)nc(-n2ccnc2)n1 (stereo not drawn) [Example 116, 1-Benzo[1,3]dioxol-5-ylmethyl-pyrrolidine-2-carboxylic acid (2-imidazol-1-yl-6-methyl-pyrimidin-4-ylmethyl)-amide]",> 50 µM
10,"Cc1cc(CNC(=O)C2CCCN2Cc2ccco2)nc(-n2ccnc2)n1 (stereo not drawn) [Example 118, 1-Furan-2-ylmethyl-pyrrolidine-2-carboxylic acid (2-imidazol-1-yl-6-methyl-pyrimidin-4-ylmethyl)-amide]",> 50 µM
11,"Cc1cc(CNC(=O)C2CCCN2Cc2ccsc2)nc(-n2ccnc2)n1 (stereo not drawn) [Example 119, 1-Thiophen-3-ylmethyl-pyrrolidine-2-carboxylic acid (2-imidazol-1-yl-6-methyl-pyrimidin-4-ylmethyl)-amide]",> 50 µM
12,"O=C(NCCc1ccc2c(c1)OCCO2)[C@H]1C[C@@H](O)CN1c1nc(-n2ccnc2)ns1 [Example 123, (2R,4R)-4-Hydroxy-1-(3-imidazol-1-yl-[1,2,4]thiadiazol-5-yl)-pyrrolidine-2-carboxylic acid [2-(2,3-dihydro-benzo[1,4]dioxin-6-yl)-ethyl]-amide]",< 1 µM
13,"Cc1cc(C2C(C(=O)NCCc3ccc4c(c3)OCCO4)CCN2C)nc(-n2ccnc2)n1 (stereo not drawn) [Example 124, 2-(2-Imidazol-1-yl-6-methyl-pyrimidin-4-yl)-1-methyl-pyrrolidine-3-carboxylic acid [2-(2,3-dihydro-benzo[1,4]dioxin-6-yl)-ethyl]-amide]",< 1 µM
14,"O=C(NCCc1ccc2c(c1)OCCO2)[C@H]1C[C@H](O)CN1c1nc(-n2ccnc2)ns1 [Example 126, (2R,4S)-4-Hydroxy-1-(3-imidazol-1-yl-[1,2,4]thiadiazol-5-yl)-pyrrolidine-2-carboxylic acid [2-(2,3-dihydro-benzo[1,4]dioxin-6-yl)-ethyl]-amide]",< 1 µM
15,"CN(CCNCCc1ccc2c(c1)OCO2)c1nc(-n2ccnc2)ns1 [Example 127, N′-(2-Benzo[1,3]dioxol-5-yl-ethyl)-N-(3-imidazol-1-yl-[1,2,4]thiadiazol-5-yl)-N-methyl-ethane-1,2-diamine]",< 1 µM
16,"CN(CCc1ccc2c(c1)OCO2)CCN(C)c1nc(-n2ccnc2)ns1 [Example 128, N-(2-Benzo[1,3]dioxol-5-yl-ethyl)-N′-(3-imidazol-1-yl-[1,2,4]thiadiazol-5-yl)-N,N′-dimethyl-ethane-1,2-diamine]",< 1 µM
17,"O=C(NCCc1ccc2c(c1)OCO2)[C@H]1Cc2ccccc2CN1c1nc(-n2ccnc2)ns1 [Example 129, (R)-2-(3-Imidazol-1-yl-[1,2,4]thiadiazol-5-yl)-1,2,3,4-tetrahydro-isoquinoline-3-carboxylic acid (2-benzo[1,3]dioxol-5-yl-ethyl)-amide]",< 1 µM
18,"CCOC(=O)CC(NCCNCc1ccc2c(c1)OCO2)c1cc(C)nc(-n2ccnc2)n1 (stereo not drawn) [Example 135, Benzo[1,3]dioxol-5-ylmethyl-{2-[2-ethoxycarbonyl-1-(2-imidazol-1-yl-6-methyl-pyrimidin-4-yl)-ethylamino]-ethyl}-ammonium trifluoroacetate]",< 1 µM
19,"CNC(=O)CC(NCCNCc1ccc2c(c1)OCO2)c1cc(C)nc(-n2ccnc2)n1 (stereo not drawn) [Example 136, Benzo[1,3]dioxol-5-ylmethyl-{2-[1-(2-imidazol-1-yl-6-methyl-pyrimidin-4-yl)-2-methylcarbamoyl-ethylamino]-ethyl}-ammonium trifluoroacetate]",< 1 µM
20,"CNC(=O)C1CCN(CCNCc2ccc3c(c2)OCO3)C1c1cc(C)nc(-n2ccnc2)n1 (stereo not drawn) [Example 137, 2-(2-(1H-Imidazol-1-yl)-6-methylpyrimidin-4-yl)-1-(2-(benzo[d][1,3]dioxol-5-ylmethylamino)ethyl)-N-methylpyrrolidine-3-carboxamide]",< 1 µM
21,"Cc1cc(C2CCC(=O)N2CCNCc2ccc3c(c2)OCO3)nc(-n2ccnc2)n1 (stereo not drawn) [Example 138, 1-{2-[(Benzo[1,3]dioxol-5-ylmethyl)-amino]-ethyl}-5-(2-imidazol-1-yl-6-methyl-pyrimidin-4-yl)-pyrrolidin-2-one hydrochloride]",< 1 µM

# Now from value to molecule:
row,EC50,SMILES
1,< 1 µM,"c1cn(-c2nsc(N(CCCNCc3ccc4c(c3)OCO4)Cc3ccc4occc4c3)n2)cn1 [Example 101, N′-Benzo[1,3]dioxol-5-ylmethyl-N-benzofuran-5-ylmethyl-N-(3-imidazol-1-yl-[1,2,4]thiadiazol-5-yl)-propane-1,3-diamine]"
2,< 1 µM,"c1cncc(CN(CCCNCc2ccc3c(c2)OCO3)c2nc(-n3ccnc3)ns2)c1 [Example 102, N′-Benzo[1,3]dioxol-5-ylmethyl-N-(3-imidazol-1-yl-[1,2,4]thiadiazol-5-yl)-N-pyridin-3-ylmethyl-propane-1,3-diamine]"
3,< 1 µM,"CN(C)c1ccc(CN(CCCNCc2ccc3c(c2)OCO3)c2nc(-n3ccnc3)ns2)cc1 [Example 105, N-Benzo[1,3]dioxol-5-ylmethyl-N′-(4-dimethylamino-benzyl)-N′-(3-imidazol-1-yl-[1,2,4]thiadiazol-5-yl)-propane-1,3-diamine]"
4,> 50 µM,"Cc1cc(CNC(=O)C2CCCN2Cc2cccc(C(F)(F)F)c2)nc(-n2ccnc2)n1 (stereo not drawn) [Example 108, 1-(3-Trifluoromethyl-benzyl)-pyrrolidine-2-carboxylic acid (2-imidazol-1-yl-6-methyl-pyrimidin-4-ylmethyl)-amide]"
5,> 50 µM,"Cc1cc(CNC(=O)C2CCCN2Cc2ccccn2)nc(-n2ccnc2)n1 (stereo not drawn) [Example 109, 1-Pyridin-2-ylmethyl-pyrrolidine-2-carboxylic acid (2-imidazol-1-yl-6-methyl-pyrimidin-4-ylmethyl)-amide]"
6,> 50 µM,"COc1cc(CN2CCCC2C(=O)NCc2cc(C)nc(-n3ccnc3)n2)cc(OC)c1 (stereo not drawn) [Example 110, 1-(3,5-Dimethoxy-benzyl)-pyrrolidine-2-carboxylic acid (2-imidazol-1-yl-6-methyl-pyrimidin-4-ylmethyl)-amide]"
7,> 50 µM,"COc1ccc(CN2CCCC2C(=O)NCc2cc(C)nc(-n3ccnc3)n2)cc1O (stereo not drawn) [Example 114, 1-(3-Hydroxy-4-methoxy-benzyl)-pyrrolidine-2-carboxylic acid (2-imidazol-1-yl-6-methyl-pyrimidin-4-ylmethyl)-amide]"
8,> 50 µM,"Cc1cc(CNC(=O)C2CCCN2Cc2ccc(OCCO)cc2)nc(-n2ccnc2)n1 (stereo not drawn) [Example 117, 1-[4-(2-Hydroxy-ethoxy)-benzyl]-pyrrolidine-2-carboxylic acid (2-imidazol-1-yl-6-methyl-pyrimidin-4-ylmethyl)-amide]"
9,< 1 µM,"O=C(NCCc1ccc2c(c1)OCCO2)[C@H]1CCCN1c1nc(-n2ccnc2)ns1 [Example 120, 1-(3-Imidazol-1-yl-[1,2,4]thiadiazol-5-yl)-pyrrolidine-2-carboxylic acid [2-(2,3-dihydro-benzo[1,4]dioxin-6-yl)-ethyl]-amide]"
10,< 1 µM,"CC(C)[C@@H](Nc1nc(-n2ccnc2)ns1)C(=O)NCCc1ccc2c(c1)OCO2 [Example 122, (R)—N-(2-Benzo[1,3]dioxol-5-yl-ethyl)-2-(3-imidazol-1-yl-[1,2,4]thiadiazol-5-ylamino)-3-methyl-butyramide]"
11,< 1 µM,"Cc1cc(C2C(C(=O)NCCc3ccc4c(c3)OCO4)CCN2C)nc(-n2ccnc2)n1 (stereo not drawn) [Example 125, 2-(2-Imidazol-1-yl-6-methyl-pyrimidin-4-yl)-1-methyl-pyrrolidine-3-carboxylic acid (2-benzo[1,3]dioxol-5-yl-ethyl)-amide]"
12,< 1 µM,Cc1cc(C2CCCCN2CCN(C)Cc2ccc3c(c2)OCO3)nc(-n2ccnc2)n1 (stereo not drawn) [Example 134]

# — US7825256B2, “Inducible nitric oxide synthase dimerization inhibitors” (Kalypsys, Inc., priority 2004, dated 2010)
